Like-named read-outs stand apart in the source and are kept apart here.

We go through 34 compounds from patent US9290427B2, “Anti-invasive compounds” (Universiteit Gent, priority 2012, dated 2016).

The test system of assay [1] is MCF-7/6 mammary carcinoma cells. Set-up: unit not given here. The note with it: training set compounds 1-34, Indo-Belgian screening program; class = log cmin, lowest concentration with invasion grade I or II; cited from earlier work.
The test system is the same in assay [2]. The experiment in a line: chick heart invasion assay. The note with it: for Actual in vitro activity class: compounds 37-51, Table 11; for Actual class: training set compounds 37-51, class = log cmin, lowest concentration with invasion grade I or II; for anti-invasive activity class act.: validation set, in vitro. Set-up: unit not given here. The class given is cell-based, human. The text has this:
“Anti-invasive” or “anti-invasive activity” is the ability to inhibit the invasiveness of tumor cells. Invasion by tumor cells is defined as the progressive occupation and destruction of their environment, and is the result of matrix degradation and directional cell motility. Anti-invasive activity of a compound is the ability to inhibit or block invasion, and can be assessed by counting the number of invading cells, by the depth of their invasion and/or by the amount of environmental destruction. Many assays in vitro can be applied to test for anti-invasive activity (for a complete list see Bracke et al. 2008). The three most popular ones are: • Chick heart invasion assay (Bracke et al., 2001, see details below). The cut-off value is between grade II (non-invasive) and grade III (invasive). […] Collagen gels, prepared on the bottom of plastic wells are covered with a test cell suspension, and incubated with liquid culture medium for 24 h. Invasion is evaluated with an inverted phase-contrast microscope, and is based on the percentage of cells showing extensions in the gel. […] Matrigel is a mixture of basement membrane components, and is applied as a semi-solid layer on top a filter with pores allowing the transgression of cells. The test cell suspension is seeded on top of the gel, and incubated for 1 day in a two-compartment chamber system. Invasion is then evaluated via the percentage of cells that are attached to the lower side of the filter.
In the chick heart invasion assay cancer cells are confronted with a fragment of normal tissue, so as not to neglect the contribution of the host tissue in the micro-ecosystem that governs tumor behavior. As such, precultured heart tissue fragments (PHFs), dissected from 9-day-old chicken embryos, may be confronted with aggregates of human invasive MCF-7/6 mammary carcinoma cells in the presence of a certain concentration of a test compound. After eight days, the interaction between the cancer cells and the PHF is evaluated histologically and classified along a 5-grades subjective scale (Bracke et al., 2001). Grades III and IV are typical for invasion, while grades 0, I and II correspond to absence of invasion. Compounds that inhibit invasion of confronting cancer cells i.e. from III/IV to 0/I/II, are determined as anti-invasive. Possible alternative assays generally known in the art are the type I collagen invasion assay, wound healing assay and the matrigel invasion assay.
“Anti-invasive” refers to the ability to inhibit invasion of the tumor or cancer cell into surrounding tissue (within or outside the organ of origin). […] This screening method confronts cancer cells with a fragment of normal tissue, so as not to neglect the contribution of the host tissue in the micro-ecosystem that governs tumor behavior. The interaction between the cancer cells and the normal tissue is evaluated histologically and classified along a 5-grades subjective scale. Grades III and IV are typical for invasion, while grades 0, I and II correspond to absence of invasion. Compounds that inhibit invasion of confronting cancer cells i.e. from III/IV to 0/I/II, are determined as anti-invasive. Possible alternative assays generally known in the art are the type I collagen invasion assay and the Matrigel invasion assay.
The potency of these molecules had been evaluated by means of the chick heart invasion assay, as described herein before.

On to `COc1ccc(/C=C/C(=O)c2cc(C(c3ccccc3)c3ccccc3)c(OC)cc2O)cc1` [Compound 1, (2E)-1-(5-Benzhydryl-2-hydroxy-4-methoxyphenyl)-3-(4-methoxyphenyl)propenone], for which, in assay [1], the Actual class is given as 3 (>100).
`CCOc1ccc(/C=C/C(=O)c2cc(C(c3ccccc3)c3ccccc3)c(OC)cc2O)cc1` [Compound 2, (2E)-1-(5-Benzhydryl-2-hydroxy-4-methoxyphenyl)-3-(4-ethoxyphenyl)propenone]: the Actual class in assay [1] was 3 (>100).
On to `COc1ccc(C(=O)/C=C/c2ccccc2)cc1` [Compound 38, (2E)-3-phenyl-1-(4-methoxyphenyl)propenone], for which, in assay [2], the “Actual in vitro activity class” value is given as 1 (about 10) and the Actual class was 1 (about 10).
As to `COc1ccc(/C=C/C(=O)c2ccccc2)cc1` [Compound 39, (2E)-3-(4-Methoxyphenyl)-1-phenylpropenone], in assay [2], the “Actual in vitro activity class” value is 1 (about 10) and the Actual class is 1 (about 10).
With `COc1ccc(/C=C/C(=O)c2ccc(OC)cc2)cc1` [Compound 40, (2E)-3-(4-Methoxyphenyl)-1-(4-methoxyphenyl)propenone], in assay [2], the “Actual in vitro activity class” value is 1 (about 10) and the Actual class is listed as 1 (about 10).
With `COc1ccc(C(=O)/C=C/c2cccc(OC)c2)cc1` [Compound 41, (2E)-3-(3-Methoxyphenyl)-1-(4-methoxyphenyl)propenone], in assay [2], the “Actual in vitro activity class” value is listed as 0 (about 1) and the Actual class is listed as 0 (about 1).
As for `COc1cc(OC)c(C(=O)/C=C/c2cc(OC)c(OC)cc2OC)c(OC)c1` [Compound 42, (2E)-3-(2,4,5-Trimethoxyphenyl)-1-(2,4,6-trimethoxyphenyl)propenone], in assay [2], the “Actual in vitro activity class” value is reported as 1 (about 10) and the Actual class is listed as 1 (about 10).
Consider `COc1ccc(C(=O)/C=C/c2cc(OC)c(OC)cc2OC)cc1` [Compound 44, (2E)-3-(2,4,5-Trimethoxyphenyl)-1-(4-methoxyphenyl)propenone], for which, in assay [2], the “Actual in vitro activity class” value is reported as 0 (about 1) and the Actual class is reported as 0 (about 1).
Take `COc1ccc(C(=O)/C=C/c2c(OC)cc(OC)cc2OC)cc1` [Compound 45, (2E)-1-(4-methoxyphenyl)-3-(2,4,6-trimethoxyphenyl)prop-2-en-1-one]: in assay [2], the “Actual in vitro activity class” value is −1 (about 0.1) and the Actual class is on record as −1 (about 0.1).
As for `COc1cc(OC)c(OC)cc1/C=C/C(=O)c1c(OC)cccc1OC` [Compound 46, (2E)-3-(2,4,5-Trimethoxyphenyl)-1-(2,6-dimethoxyphenyl)propenone], in assay [2], the “Actual in vitro activity class” value is on record as 1 (about 10) and the Actual class is on record as 1 (about 10).
Turning to `COc1cc(OC)c(/C=C/C(=O)c2c(OC)cccc2OC)c(OC)c1` [Compound 47, (2E)-3-(2,4,6-Trimethoxyphenyl)-1-(2,6-dimethoxyphenyl)propenone], in assay [2], the “Actual in vitro activity class” value is reported as 0 (about 1) and the Actual class was 0 (about 1).
As to `COc1ccc(C(=O)/C=C/c2ccc(F)cc2)cc1` [Compound 48, (2E)-3-(4-Fluorophenyl)-1-(4-methoxyphenyl)propenone], in assay [2], the “Actual in vitro activity class” value is reported as 0 (about 1) and the Actual class was 0 (about 1).
Consider `O=C(/C=C/c1ccc(F)cc1)c1ccc(F)cc1` [Compound 50, (2E)-3-(4-Fluorophenyl)-1-(4-fluorophenyl)propenone], for which, in assay [2], the “Actual in vitro activity class” value is 1 (about 10) and the Actual class is on record as 1 (about 10).
`COc1ccc(C(=O)/C=C/c2ccc(Cl)cc2)cc1` [Compound 52, (2E)-3-(4-chlorophenyl)-1-(4-methoxyphenyl)prop-2-en-1-one]: the “anti-invasive activity class act.” value in assay [2] is on record as −2 (about 0.01).
With `O=C(/C=C/c1cccc(F)c1)c1ccc(F)cc1` [Compound 53, (2E)-3-(3-Fluorophenyl)-1-(4-fluorophenyl)propenone], the “anti-invasive activity class act.” value in assay [2] is −1 (about 0.1).
Same read-out and setting: in the case of `COc1ccc(C(=O)/C=C/c2cccc(F)c2)cc1` [Compound 54, (2E)-3-(3-Fluorophenyl)-1-(4-methoxyphenyl)propenone] it was 1 (about 10); in that of `COc1ccc(C(=O)/C=C/c2ccccc2F)cc1` [Compound 55, (2E)-3-(2-Fluorophenyl)-1-(4-methoxyphenyl)propenone], 1 (about 10); in that of `O=C(/C=C/c1ccc(F)cc1)c1ccc(O)cc1` [Compound 58, (2E)-3-(4-Fluorophenyl)-1-(4-hydroxyphenyl)propenone], 1 (about 10).
The same measure, in the same setting: as for `CC(C)=CCOc1ccc(C(=O)/C=C/c2ccc(F)cc2)cc1` [Compound 62, (2E)-3-(4-Fluorophenyl)-1-[4-(3-methylbut-2-enyloxy)phenyl]propenone], the entry is “>=2 (about 100)”.
Still for that read-out and setting: in the case of `O=C(C=Cc1ccc(F)cc1)c1ccco1` [Compound 68, 1-(2-Furyl)-3-(4-fluorophenyl)propenone] it was 1 (about 10).
As to `O=C(C=Cc1ccco1)c1ccco1` [Compound 70, 1,3-Difuran-2-yl-propenone], the “anti-invasive activity class act.” value in assay [2] is given as −1 (about 0.1).
Consider `O=C(/C=C/c1ccco1)c1ccccc1` [Compound 72, (2E)-3-Furan-2-yl-1-phenylpropenone], for which, in assay [2], the “anti-invasive activity class act.” value is given as “>=2 (about 100)”.
The same measure, in the same setting: as for `O=C(/C=C/c1ccco1)c1ccc(F)cc1` [Compound 73, (2E)-3-(2-Furanyl)-1-(4-fluorophenyl)propenone], the figure is 2 (about 100); as for `COc1ccc(C(=O)C=Cc2ccco2)cc1` [Compound 74, 3-Furan-2-yl-1-(4-methoxyphenyl)propenone], 2 (about 100).
The same measure, in the same setting: in the case of `COc1cc(C(=O)/C=C/c2ccco2)cc(OC)c1OC` [Compound 75, (2E)-3-(2-Furanyl)-1-(3,4,5-trimethoxyphenyl)propenone] it was −1 (about 0.1); in that of `COc1cccc(OC)c1C(=O)/C=C/c1ccco1` [Compound 76, (2E)-3-(2-Furanyl)-1-(2,6-dimethoxyphenyl)propenone], −1 (about 0.1); in that of `O=C(/C=C/c1ccoc1)c1ccc(F)cc1` [Compound 77, (2E)-3-(3-Furanyl)-1-(4-fluorophenyl)propenone], −1 (about 0.1).
Still for that read-out and setting: as for `O=C(/C=C/c1cc2ccccc2o1)c1ccc(F)cc1` [Compound 78, (2E)-3-(2-Benzofuranyl)-1-(4-fluorphenyl)propenone], the figure is 2 (about 100); as for `COc1ccc(C(=O)/C=C/c2cc3ccccc3o2)cc1` [Compound 79], 2 (about 100).
As for `C=CCn1cc(C(=O)/C=C/c2ccc(Cl)cc2)c2ccccc21` [Compound 84], the “anti-invasive activity class act.” value in assay [2] is “≧2 (about 100)”.
Still for that read-out and setting: in the case of `CC(C)=CCn1cc(C(=O)/C=C/c2ccc(Cl)cc2)c2ccccc21` [Compound 85, (2E)-3-(4-Chlorophenyl)-1-[1-(3-methylbut-2-enyl)-1H-indol-3-yl]propenone] it was “≧2 (about 100)”; in that of `CC1(C)CCc2c(O)c(C(=O)/C=C/c3cccc([N+](=O)[O-])c3)c3c(c2O1)CCC(C)(C)O3` [Compound 88, (2E)-1-(5-Hydroxy-2,2,8,8-tetramethyl-3,4,9,10-tetrahydro-2H,8H-pyrano[2,3-f]chromen-6-yl)-3-(3-nitro-phenyl)propenone], “≧3 (>100)”.
The same measure, in the same setting: as for `COc1cc(O)c(C(=O)/C=C/c2cccc([N+](=O)[O-])c2)cc1C(c1ccccc1)c1ccccc1` [Compound 89, (2E)-1-(5-Benzhydryl-2-hydroxy-4-methoxy-phenyl)-3-(3-nitro-phenyl)-propenone], the entry is “≧3 (>100)”.
Consider “(2E)-1,3-diphenylpropenone [Compound 37]”, for which, in assay [2], the “Actual in vitro activity class” value is on record as 1 (about 10) and the Actual class is on record as 1 (about 10).
